Assay [1] can be described thus: Expert rating of hair switches for frizz, clean feel and greasy feel. The following applies: 1% in leave-on composition. The procedure:
Additional leave-on treatment compositions are prepared (Tables 1 and 2) according to the procedure described above, which are used to treat hair switches using the procedure described above (amount of 0.10 g of composition per g of hair). The switch is kept at high humidity (above 85%) for 2 hours. Then, ten experts are asked to rate each hair switch in terms of frizz, clean feel, and greasy feel, based on a 5 point scale, 5 being the highest and 1 being the lowest rating. Acceptable values are:
For frizz, less than 2 (lower number corresponds to less frizz);
For no greasy feel less than 3, (lower number corresponds to less greasy feel), and
For clean feel greater than 3 (higher number corresponds to cleaner feel).

Assay [2] in a line: Leave-on treatment, % water reduction by DVS in damaged hair. The following applies: 10% propylene glycol.
Experimental: An amount of 25-30 mg of hair with length of approximately 1 cm is weighed and hold for equilibration at 0% RH for 16 hours. After the 16-hour period, the RH is increased to 10% and maintained at this level for 6 hours. Then, the RH is increased by 10% after every 6 hours interval until it reaches 90% RH. The % water reduction is calculated as follows:
A=Amount of water absorbed by the hair treated with composition containing the Moisture Control Material
The nature of assay [3]: Soaking treatment, moisture uptake by DVS. Particulars: pH 4.2, 40 deg C., at 90% RH. Here is the method:
The Moisture Control Material is added into a 50:50 ethanol:water solvent at a concentration of 2% w/w and mixed until completely dissolved. The solution pH is adjusted with sodium hydroxide (50% w/w) to a final pH of 4.2. The soaking solution is kept at 40 deg C. for 2 hrs. until a uniform composition is obtained.
One hair switch of natural virgin brown hair is placed in 200 ml of this solution for 2 hours in an oven set at 40° C. After the 2-hour period, the hair is removed, air dried and then tested for moisture uptake using DVS. For the control experiment, a natural brown virgin hair switch of the same weight is placed in a 50:50 ethanol:water solvent and treated under identical conditions.
The % water reduction is calculated as follows: […]
Hair soaked in active solution of pH 4.2 for different interval of time from 10 min to 2 hrs at 40 deg C. Hair Switches were air dried and prepared for % water reduction measurement using DVS vs. control (no active).

The text below walks through data of patent US10632054B2, “Method for hair frizz reduction” (The Procter & Gamble Company, priority 2015, dated 2020).

Each structure is given as a SMILES string.

`O=C(O)c1ccc(O)cc1O` [2,4-Dihydroxybenzoic acid]: the “Hair switch rating result in words (frizz, clean feel, greasy feel)” value (“Hair switch rating result in words” below) in assay [1] was “provide frizz protection with clean feel and without greasy feel negative”.

For `CCCCCCCCC(CO)CCCCCC` (stereo not shown) [2-Hexyl-1-decanol], the “Hair switch rating result in words” value in assay [1] is “provide frizz protection with clean feel and without greasy feel negative”.

Regarding `O=C(OCCO)c1ccccc1O` [2-Hydroxyethyl salicylate], in assay [1], the “Hair switch rating result in words” value was “provide frizz protection with clean feel and without greasy feel negative”.

As for `O=S(=O)(O)c1ccc(O)cc1` [4-Hydroxybenzenesulphonic acid], the “Hair switch rating result in words” value in assay [1] is “provide frizz protection with clean feel and without greasy feel negative”.

For `O=C(O)c1cc(Cl)ccc1O` [5-Chlorosalicylic acid], in assay [1], the “Hair switch rating result in words” value is “provide frizz protection with clean feel and without greasy feel negative”. Besides, in assay [2], the “increase in % water reduction as measured by DVS versus without propylene glycol” value was about 4 times. The “% water reduction vs. control” value is 9.6% in assay [3] (10 min soaking); 14.8% in assay [3] (20 mins soaking); 19% in assay [3] (30 mins soaking); 26% in assay [3] (1 hr soaking); 30% in assay [3] (2 hr soaking).

For `CC(C)CCCCCCCCCCCCCCCOC(=O)CCCCCCCCCCCCCCC(C)C` [Isostearyl isostearate], the “Hair switch rating result in words” value in assay [1] is “provide frizz protection with clean feel and without greasy feel negative”.

`O=C(O)c1ccccc1O` [Salicylic acid]: the “Hair switch rating result in words” value in assay [1] is “provide frizz protection with clean feel and without greasy feel negative”.
